Where a SMILES comes first, the peptide text is derived from it. [ ]: non-standard residue; d: D form.
B1: Solute carrier organic anion transporter family member 2B1 (Homo sapiens) (protein)
chain: MGPRIGPAGEVPQVPDKETKATMGTENTPGGKASPDPQDVRPSVFHNIKLFVLCHSLLQLAQLMISGYLKSSISTVEKRFGLSSQTSGLLASFNEVGNTALIVFVSYFGSRVHRPRMIGYGAILVALAGLLMTLPHFISEPYRYDNTSPEDMPQDFKASLCLPTTSAPASAPSNGNCSSYTETQHLSVVGIMFVAQTLLGVGGVPIQPFGISYIDDFAHNSNSPLYLGILFAVTMMGPGLAFGLGSLMLRLYVDINQMPEGGISLTIKDPRWVGAWWLGFLIAAGAVALAAIPYFFFPKEMPKEKRELQFRRKVLAVTDSPARKGKDSPSKQSPGESTKKQDGLVQIAPNLTVIQFIKVFPRVLLQTLRHPIFLLVVLSQVCLSSMAAGMATFLPKFLERQFSITASYANLLIGCLSFPSVIVGIVVGGVLVKRLHLGPVGCGALCLLGMLLCLFFSLPLFFIGCSSHQIAGITHQTSAHPGLELSPSCMEACSCPLDGFNPVCDPSTRVEYITPCHAGCSSWVVQDALDNSQVFYTNCSCVVEGNPVLAGSCDSTCSHLVVPFLLLVSLGSALACLTHTPSFMLILRGVKKEDKTLAVGIQFMFLRILAWMPSPVIHGSAIDTTCVHWALSCGRRAVCRYYNNDLLRNRFIGLQFFFKTGSVICFALVLAVLRQQDKEARTKESRSSPAVEQQLLVSGPGKKPEDSRV
B2: Solute carrier organic anion transporter family member 1B1 (Homo sapiens) (protein)
chain: MDQNQHLNKTAEAQPSENKKTRYCNGLKMFLAALSLSFIAKTLGAIIMKSSIIHIERRFEISSSLVGFIDGSFEIGNLLVIVFVSYFGSKLHRPKLIGIGCFIMGIGGVLTALPHFFMGYYRYSKETNINSSENSTSTLSTCLINQILSLNRASPEIVGKGCLKESGSYMWIYVFMGNMLRGIGETPIVPLGLSYIDDFAKEGHSSLYLGILNAIAMIGPIIGFTLGSLFSKMYVDIGYVDLSTIRITPTDSRWVGAWWLNFLVSGLFSIISSIPFFFLPQTPNKPQKERKASLSLHVLETNDEKDQTANLTNQGKNITKNVTGFFQSFKSILTNPLYVMFVLLTLLQVSSYIGAFTYVFKYVEQQYGQPSSKANILLGVITIPIFASGMFLGGYIIKKFKLNTVGIAKFSCFTAVMSLSFYLLYFFILCENKSVAGLTMTYDGNNPVTSHRDVPLSYCNSDCNCDESQWEPVCGNNGITYISPCLAGCKSSSGNKKPIVFYNCSCLEVTGLQNRNYSAHLGECPRDDACTRKFYFFVAIQVLNLFFSALGGTSHVMLIVKIVQPELKSLALGFHSMVIRALGGILAPIYFGALIDTTCIKWSTNNCGTRGSCRTYNSTSFSRVYLGLSSMLRVSSLVLYIILIYAMKKKYQEKDINASENGSVMDEANLESLNKNKHFVPSAGADSETHC

How the values were obtained:
[1] = target: T1, Solute carrier organic anion transporter family member 1B3 (Homo sapiens, UniProt Q9NPD5); test: (§1) TP_TRANSPORTER: uptake in Xenopus laevis oocytes; type: functional, cell-based, Oocyte; details: oocyte
T1 sequence (Q9NPD5 whole entry): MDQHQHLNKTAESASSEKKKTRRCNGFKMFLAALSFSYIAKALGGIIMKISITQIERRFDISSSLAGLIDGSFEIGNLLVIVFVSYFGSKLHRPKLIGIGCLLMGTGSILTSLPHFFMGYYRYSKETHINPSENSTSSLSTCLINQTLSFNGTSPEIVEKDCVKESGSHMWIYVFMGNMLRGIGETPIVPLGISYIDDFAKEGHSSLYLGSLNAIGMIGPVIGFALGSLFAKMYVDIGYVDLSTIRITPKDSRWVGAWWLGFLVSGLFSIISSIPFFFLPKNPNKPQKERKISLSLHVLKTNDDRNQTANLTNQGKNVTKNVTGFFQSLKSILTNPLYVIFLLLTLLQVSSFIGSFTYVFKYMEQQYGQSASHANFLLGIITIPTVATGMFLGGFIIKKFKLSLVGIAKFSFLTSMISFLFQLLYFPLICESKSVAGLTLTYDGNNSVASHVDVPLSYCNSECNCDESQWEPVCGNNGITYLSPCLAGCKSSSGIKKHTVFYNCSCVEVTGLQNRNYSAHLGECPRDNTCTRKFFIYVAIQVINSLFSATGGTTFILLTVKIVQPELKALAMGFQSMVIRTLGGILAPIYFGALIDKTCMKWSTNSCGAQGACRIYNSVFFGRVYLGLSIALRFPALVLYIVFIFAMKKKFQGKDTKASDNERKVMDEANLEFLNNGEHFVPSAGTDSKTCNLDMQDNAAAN

[2] = target: T2, Solute carrier organic anion transporter family member 2B1 (Homo sapiens, UniProt O94956); test: as §1; type: functional, cell-based; details: oocyte
T2 sequence (O94956 whole entry): B1 chain

[3] = target: T3, Solute carrier organic anion transporter family member 1B1 (Homo sapiens, UniProt Q9Y6L6); test: as §1; type: functional, cell-based; details: oocyte
T3 sequence (Q9Y6L6 whole entry): B2 chain

[4] = target: T4, Solute carrier organic anion transporter family member 1A2 (Homo sapiens, UniProt P46721); test: as §1; type: functional, cell-based; details: oocyte
T4 sequence (P46721 whole entry): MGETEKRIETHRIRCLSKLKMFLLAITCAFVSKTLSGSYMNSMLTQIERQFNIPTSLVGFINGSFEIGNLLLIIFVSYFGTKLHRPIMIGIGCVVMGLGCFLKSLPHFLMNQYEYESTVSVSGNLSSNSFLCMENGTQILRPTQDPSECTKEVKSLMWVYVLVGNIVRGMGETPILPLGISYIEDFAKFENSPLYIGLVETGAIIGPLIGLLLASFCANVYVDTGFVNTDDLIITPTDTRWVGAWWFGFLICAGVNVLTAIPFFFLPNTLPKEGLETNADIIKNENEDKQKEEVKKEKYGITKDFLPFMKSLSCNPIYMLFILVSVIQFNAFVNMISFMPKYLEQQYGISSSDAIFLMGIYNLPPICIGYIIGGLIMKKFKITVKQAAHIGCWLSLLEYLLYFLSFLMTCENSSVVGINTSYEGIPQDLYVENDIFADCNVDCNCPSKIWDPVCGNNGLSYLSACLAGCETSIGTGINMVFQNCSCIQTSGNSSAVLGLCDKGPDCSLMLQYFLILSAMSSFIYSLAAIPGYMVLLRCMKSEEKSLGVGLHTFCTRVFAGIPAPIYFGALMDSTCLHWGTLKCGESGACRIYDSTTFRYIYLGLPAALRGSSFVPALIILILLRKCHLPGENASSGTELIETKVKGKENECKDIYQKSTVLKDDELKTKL

[5] = target: T5, Solute carrier organic anion transporter family member 1B3 (OATP1B3, SLCO1B3) (Homo sapiens, UniProt Q9NPD5); test: as §1; type: functional, cell-based, Oocyte; details: Xenopus laevis oocytes expressing the transporter
T5 sequence (Q9NPD5 whole entry): T1 sequence (Q9NPD5 whole entry)

[6] = substrate: O=C1OC(c2ccc(O)c(S(=O)(=O)O)c2)(c2ccc(O)c(S(=O)(=O)O)c2)c2c(Br)c(Br)c(Br)c(Br)c21; test: as §1; type: functional, cell-based, Oocyte

| Molecule | Activity [1] | Activity [4] | other results |
| --- | --- | --- | --- |
| C[C@]12CC[C@H](OS(=O)(=O)O)CC1=CC[C@@H]1[C@@H]2CC[C@]2(C)C(=O)CC[C@@H]12 [PRASTERONE SULFURIC ACID] | substrate [+] | – | Activity [2]: substrate [+] |
| CC1(C)SSC(C)(C)[C@@H](NC(=O)[C@@H](N)Cc2ccc(O)cc2)C(=O)NCC(=O)N[C@@H](Cc2ccccc2)C(=O)N[C@H]1C(=O)O | substrate [+] | – | Activity [3]: substrate [+] |
| C[C@H](CCC(=O)NCC(=O)O)[C@H]1CC[C@H]2[C@@H]3[C@H](O)C[C@@H]4C[C@H](O)CC[C@]4(C)[C@H]3C[C@H](O)[C@]12C [GLYCOCHOLIC ACID] | substrate [+] | substrate [+] | Activity [3]: substrate [+] |
| C[C@@H]1O[C@@H](O[C@H]2C[C@@H](O)[C@]3(CO)[C@H]4[C@H](O)C[C@]5(C)[C@@H](C6=CC(=O)OC6)CC[C@]5(O)[C@@H]4CC[C@]3(O)C2)[C@H](O)[C@H](O)[C@H]1O [OUABAIN] | substrate [+] | substrate [+] | – |
| CC(C)[C@H](NC(=O)[C@H](CCC(=O)O)NC(=O)[C@H](Cc1ccccc1)NC(=O)[C@@H](C)NC(=O)[C@@H](N)Cc1ccc(O)cc1)C(=O)N[C@H](C(=O)NCC(N)=O)C(C)C [DELTORPHIN II] | substrate [+] | – | – |
| CCCCC[C@H](O)/C=C/[C@H]1[C@H](O)CC(=O)[C@@H]1C/C=C\CCCC(=O)O [DINOPROSTONE] | – | substrate [+] | – |
| O=C1OC(c2ccc(O)c(S(=O)(=O)O)c2)(c2ccc(O)c(S(=O)(=O)O)c2)c2c(Br)c(Br)c(Br)c(Br)c21 [SULFOBROMOPHTHALEIN SODIUM] | – | – | Km [5]: 0.4 µM |
| CC(C)C[C@@H]1NC(=O)[C@@H](C(C)C)NC(=O)[C@@H]2CCCN2C(=O)[C@@H](CC(=O)O)NC(=O)[C@@H](Cc2c[nH]c3ccccc23)NC1=O [BQ-123] (cyclo(L[dW][dD]P[dV])) | substrate [+] | substrate [+] | Activity [3]: substrate [+] |
| CCCCC/C=C\C\C=C/C=C/C=C/[C@@H](SC[C@@H](NC(=O)CC[C@H](N)C(=O)O)C(=O)NCC(=O)O)[C@@H](O)CCCC(=O)O [LEUKOTRIEN C4] | substrate [+] | – | – |
| C[C@]12CC[C@@H]3c4ccc(OS(=O)(=O)O)cc4CC[C@H]3[C@@H]1CCC2=O [ESTRONE SULFURIC ACID] | substrate [+] | – | Activity [2]: substrate [+] |
| C[C@]12CC[C@@H]3c4ccc(O)cc4CC[C@H]3[C@@H]1CC[C@@H]2O[C@@H]1O[C@H](C(=O)O)[C@@H](O)[C@H](O)[C@H]1O [ESTRADIOL 17B GLUCURONIDE] | substrate [+] | substrate [+] | – |
| N[C@@H](Cc1cc(I)c(Oc2cc(I)c(O)c(I)c2)c(I)c1)C(=O)O [LEVOTHYROXINE] | substrate [+] | – | – |
| N[C@@H](Cc1cc(I)c(Oc2ccc(O)c(I)c2)c(I)c1)C(=O)O [LIOTHYRONINE] | substrate [+] | – | – |
| B1 | – | – | Km [6]: 0.7 µM |
| B2 | – | – | Km [6]: 0.3 µM |
